Assay results taken from US20220257722A1, “COMPOSITIONS AND METHODS OF TREATING AND PREVENTING SYSTEMIC COMPLICATIONS OF ACUTE ILLNESS” (United States Government As Represented By The Department …, priority 2019, published 2022).

Tested on: rat small intestine
Test: LPS-induced small intestinal FD4 paracellular permeability in vivo (PV and arterial FD4)
Conditions: for TDG-induced inhibitory effect on PV FD4 levels: LPS 6 hr + TDG 6 hr; for TDG-induced inhibitory effect on PV FD4 levels / Arterial FD4 levels in LPS 6 hr + TDG 6 hr rats: inhibitor iv at t=-10 min or co-perfused; for Arterial FD4 levels in LPS 6 hr + TDG 6 hr rats: t=90 min
Description: LPS treatment. Animals were treated with LPS (5 mg/kg, ip) once at 9 am. For the acute experiments, the animals were fasted overnight and were treated with LPS 1, 3, or 6 hr before the anesthesia for small intestinal perfusion of FD4 as described herein. For the 24-hr experiments, the animals fed ad libitum were treated with LPS 24 hr before anesthesia induction used for the perfusion study. As a control, saline was injected ip at the corresponding time before the experiments. The animal groups were expressed as control, LPS 1 hr, LPS 3 hr, LPS 6 hr, and LPS 24 hr.
Small intestinal perfusion. The small intestinal perfusion from the duodenum, and portal vein (PV) cannulation were prepared by the modified methods. Under isoflurane anesthesia (2%), the animal was placed […] on a recirculating heating block system (Summit Medical Systems, Bend, Oreg., USA) in order to maintain body temperature at 36-37° C. Prewarmed saline was infused via the right femoral vein at 1.08 ml/h using a Harvard infusion pump (Harvard Apparatus, Holliston, Mass., USA). The abdomen was incised, and the PV was cannulated with a polyethylene (PE)-50 tube attached with 23G needle and fixed by methylacrylate adhesive at the insertion site. The tube was filled with heparinized saline enabling repeated blood sampling. Samples of 0.2 ml PV blood were collected every 15 min, followed by flushing with 0.2 ml heparinized saline. A polyethylene tube (diameter 5 mm) filled with PBS was inserted through the forestomach and tied at 0.5 cm caudal from the pyloric ring. After bolus perfusion of 2-ml phosphate buffer saline (PBS, 10 mM, pH 7.4) into the duodenum from the tube, followed by stabilization for ˜30 min, the time was set as t=0. FD4 (0.1 mM) in 10-ml PBS was slowly perfused at t=0 min for 30 sec. Blood samples were collected into a 0.5-ml tubes containing 1-μl each of EDTA (0.5 M) and the dipeptidyl peptidase-4 (DPP4) inhibitor NVP-728 (1 mM), and immediately centrifuged at 5,000× g for 5 min, after which the plasma was stored on ice or at −80 ° C. until use. At 90 min, after collection of PV samples, arterial blood was taken from abdominal aorta, followed by euthanasia by thoracotomy.
Appearance of FD4 into the PV and arterial plasma was assessed by fluorescence intensity measurement using a multi-mode microplate reader (Synergy-2, BioTek Instruments, Inc., Winooski, VT, USA). Fluorescence intensity in t=0 sample as background was subtracted from the fluorescence values measured in other time point samples. FD4 content was calculated according to the standard curve generated each time of measurement.
Drug treatment for the intestinal perfusion study. The following drugs were administered at the time after LPS treatment: the GLP2R partial agonist/antagonist GLP-2(3-33) (1 mg/kg; 280 nmol/kg, ip) was given immediately after LPS treatment (0 hr after LPS treatment); GLP-2 (380 μg/kg; 100 nmol/kg, ip) was given 6 hr after LPS treatment; a stable GLP-2 analog TDG (50 μg/kg; 13.3 nmol/kg) was ip injected 0, 3, 6, or 12 hr after LPS treatment or iv injected at t=0 min just before the perfusion of FD4 solution (6 or 24 hr after LPS treatment). In acute experiments, TDG was iv injected at t=0 min (6 hr after LPS treatment) with or without the pretreatment of the selective IGF1 receptor (IGF1R) tyrosine kinase inhibitor AEW541 (0.1 mg/kg, iv), the selective EGF receptor (EGFR) tyrosine kinase inhibitor PD153035 (10 μg/kg, iv) or PG97-269 (1 mg/kg, iv) at t=−10 min, or the co-perfusion of L-NAME (0.1 mM, pf) with FD4 solution.

| Compound | PV FD4 levels (LPS 6 hr model, TDG 50 μg/kg ip 3 hr after LPS) | PV FD4 levels (LPS 6 hr model, TDG 50 μg/kg iv 6 hr after LPS (t=0 min)) | arterial FD4 levels (LPS 24 hr model, TDG 0 hr after LPS) | PV FD4 levels (LPS 24 hr model, TDG 50 μg/kg ip 0 hr after LPS) | PV FD4 levels (LPS 24 hr model, TDG 50 μg/kg ip 6 hr after LPS) | PV FD4 levels (LPS 24 hr model, TDG 50 μg/kg ip 12 hr after LPS) | PV FD4 levels (LPS 24 hr model, TDG 50 μg/kg iv 24 hr after LPS) | arterial FD4 levels (LPS 24 hr model, TDG 6 hr after LPS) | arterial FD4 levels (LPS 24 hr model, TDG 12 hr after LPS) | arterial FD4 levels (LPS 24 hr model, TDG 24 hr after LPS) | LPS-induced increases in PV FD4 levels at 6 hr (L-NAME 0.1 mM alone co-perfused with FD4, no TDG) | TDG-induced inhibitory effect on PV FD4 levels | Arterial FD4 levels in LPS 6 hr + TDG 6 hr rats |
| --- | --- | --- | --- | --- | --- | --- | --- | --- | --- | --- | --- | --- | --- |
| CC[C@H](C)[C@H](NC(=O)[C@H](Cc1ccccc1)NC(=O)[C@H](CC(=O)O)NC(=O)[C@H](CCCNC(=N)N)NC(=O)[C@H](C)NC(=O)[C@H](C)NC(=O)[C@H](CC(C)C)NC(=O)[C@H](CC(N)=O)NC(=O)[C@H](CC(=O)O)NC(=O)[C@H](CC(C)C)NC(=O)[C@@H](NC(=O)[C@@H](NC(=O)[C@H](CC(N)=O)NC(=O)[C@H](CCSC)NC(=O)[C@H](CCC(=O)O)NC(=O)[C@H](CC(=O)O)NC(=O)[C@H](CO)NC(=O)[C@H](Cc1ccccc1)NC(=O)[C@H](CO)NC(=O)CNC(=O)[C@H](CC(=O)O)NC(=O)CNC(=O)[C@@H](N)Cc1c[nH]cn1)[C@@H](C)O)[C@@H](C)CC)C(=O)N[C@@H](CC(N)=O)C(=O)N[C@@H](Cc1c[nH]c2ccccc12)C(=O)N[C@@H](CC(C)C)C(=O)N[C@H](C(=O)N[C@@H](CCC(N)=O)C(=O)N[C@H](C(=O)N[C@@H](CCCCN)C(=O)N[C@H](C(=O)N[C@H](C(=O)N[C@@H](CC(=O)O)C(=O)O)[C@@H](C)O)[C@@H](C)CC)[C@@H](C)O)[C@@H](C)CC [TDG] | reduced | reduced | no significant effect | little effect | reduced | reduced | little effect | inhibited | inhibited | no significant effect |  |  |  |
| COC(=O)[C@@H](N)CCCNC(=N)N[N+](=O)[O-] [L-NAME, Nω-nitro-L-arginine methyl ester] |  |  |  |  |  |  |  |  |  |  | no effect | reversed | reduced |
| [Ac-His^1, D-Phe^2, Lys^15, Arg^16, Leu^27]-VIP(1-7)-GRF(8-27) (HFDAVFTNSYRKVLKRLSARKLLQDIL; HELM PEPTIDE1{[ac].H.[dF].D.A.V.F.T.N.S.Y.R.K.V.L.K.R.L.S.A.R.K.L.L.Q.D.I.L.[am]}$$$$V2.0; SMILES CC[C@H](C)[C@H](NC(=O)[C@H](CC(=O)O)NC(=O)[C@H](CCC(N)=O)NC(=O)[C@H](CC(C)C)NC(=O)[C@H](CC(C)C)NC(=O)[C@H](CCCCN)NC(=O)[C@H](CCCNC(=N)N)NC(=O)[C@H](C)NC(=O)[C@H](CO)NC(=O)[C@H](CC(C)C)NC(=O)[C@H](CCCNC(=N)N)NC(=O)[C@H](CCCCN)NC(=O)[C@H](CC(C)C)NC(=O)[C@@H](NC(=O)[C@H](CCCCN)NC(=O)[C@H](CCCNC(=N)N)NC(=O)[C@H](Cc1ccc(O)cc1)NC(=O)[C@H](CO)NC(=O)[C@H](CC(N)=O)NC(=O)[C@@H](NC(=O)[C@H](Cc1ccccc1)NC(=O)[C@@H](NC(=O)[C@H](C)NC(=O)[C@H](CC(=O)O)NC(=O)[C@@H](Cc1ccccc1)NC(=O)[C@H](Cc1c[nH]cn1)NC(C)=O)C(C)C)[C@@H](C)O)C(C)C)C(=O)N[C@@H](CC(C)C)C(N)=O) [PG97-269] |  |  |  |  |  |  |  |  |  |  |  | reversed | reduced |
